pIC50: −log10 of the molar value. Where two headings read alike, the source gives them in different places.
Tests used:
[1] = molecular target: T1, human Dopamine D3 receptor (Homo sapiens, UniProt P35462); assay: In vitro binding affinity for human D3 receptor ([125I]iodosulpride); details: for IC50: [125I]iodosulpride, membranes of human D3 receptor-transfected CHO cells, read-out: D3 binding pIC50 (converted)
T1 construct: expressed in transfected cells; host or cells: CHO cells (membranes)
Procedure: In Vitro Binding Affinity for Human D3 Receptor
Frozen membranes of human Dopamine D3 receptor-transfected CHO cells were thawed, briefly homogenized using an Ultra-Turrax T25 homogeniser and diluted in 50 mM Tris-HCl assay buffer containing 120 mM NaCl, 2 mM CaCl2, 1 mM MgCl2, 5 mM KCl and 0.1% BSA (adjusted to pH 7.4 with HCl) to an appropriate protein concentration optimized for specific and non-specific binding. Radioligand [^125I]Iodosulpride (Amersham, specific activity ˜2000 Ci/mmol) was diluted in assay buffer at a concentration of 2 nM. Prepared radioligand (20 μl), along with 40 μl of either the 10% DMSO control, Risperidone (10^−6M final concentration), or compound of interest, was then incubated with 70 μl of the prepared membrane solution and 70 μl of WGA coated PVT beads (0.25 mg/well final concentration). After shaking for 24 hours at RT plates were counted in a Topcount™ scintillation counter. Percentage specific binding and competition binding curves were calculated using S-Plus software (Insightful).

[2] = molecular target: T2, human Serotonin 5HT6 receptor (Homo sapiens, UniProt P50406); assay: In vitro binding affinity for human 5HT6 receptor ([3H]lysergic acid diethylamide); details: [3H]LSD, membranes of human 5HT6 receptor-transfected HEK cells; read-out: 5-HT6 binding pIC50 (converted)
T2 construct: expressed in transfected cells; host or cells: HEK cells (membranes)
Procedure: In Vitro Binding Affinity for Human 5HT6 Receptor
Frozen membranes of human Serotonin 5HT6 receptor-transfected HEK cells were thawed, briefly homogenized using an Ultra-Turrax T25 homogeniser and diluted in 50 mM Tris-HCl assay buffer containing 10 mM MgCl2, 1 mM EDTA and 10 μM Pargyline (adjusted to pH 7.4 with HCl) to an appropriate protein concentration optimized for specific and non-specific binding. Radioligand [^3H]Lysergic acid diethylamide (Perkin Elmer, specific activity ˜80 Ci/mmol) was diluted in assay buffer at a concentration of 20 nM. Radioligand (20 μl), along with 40 μl of either the 10% DMSO control, Methiothepine (10^−5 M final concentration), or compound of interest, was then incubated with 70 μl of the prepared membrane solution and 70 μl of WGA coated PVT beads (0.25 mg/well final concentration). After shaking for 24 hours at RT plates were counted in a Topcount™ scintillation counter. Percentage specific binding and competition binding curves were calculated using S-Plus software (Insightful).

[3] = molecular target: T3, human Dopamine D2L receptor (Homo sapiens, UniProt P14416); assay: In vitro binding affinity for human D2L receptor ([3H]spiperone); details: membranes of human D2L receptor-transfected CHO cells, read-out: D2L binding pIC50 (converted)
T3 construct: expressed in transfected cells; host or cells: CHO cells (membranes)
Description: In order to find antipsychotic compounds active against positive and negative symptoms and cognitive impairment, and having an improved safety profile (low EPS incidence and no metabolic disorders), we have screened for compounds selectively interacting with the dopamine D2 receptor and dissociating fast from this receptor, and further having affinity for the dopamine D3 receptor as well as the serotonin 5-HT-6 receptor. Compounds were first screened for their D2 affinity in a binding assay using [^3H]spiperone and human D2L receptor cell membranes.
Pharmacology In Vitro Binding Affinity for Human D2L Receptor
Frozen membranes of human Dopamine D2L receptor-transfected CHO cells were thawed, briefly homogenised using an Ultra-Turrax T25 homogeniser and diluted in Tris-HCl assay buffer containing NaCl, CaCl2, MgCl2, KCl (50, 120, 2, 1, and 5 mM respectively, adjusted to pH 7.7 with HCl) to an appropriate protein concentration optimised for specific and non-specific binding. Radioligand [^3H]Spiperone (NEN, specific activity ˜70 Ci/mmol) was diluted in assay buffer at a concentration of 2 nmol/L. Prepared radioligand (50 μl), along with 50 μl of either the 10% DMSO control, Butaclamol (10^−6 mol/1 final concentration), or compound of interest, was then incubated (30 min, 37° C.) with 400 μl of the prepared membrane solution. Membrane-bound activity was filtered through a Packard Filtermate harvester onto GF/B Unifilterplates and washed with ice-cold Tris-HCl buffer (50 mM; pH 7.7; 6×0.5 ml). Filters were allowed to dry before adding scintillation fluid and counting in a Topcount scintillation counter. Percentage specific bound and competition binding curves were calculated using S-Plus software (Insightful).

human D2L receptor = molecular target: T4, human D2L receptor (Homo sapiens, UniProt P14416); assay: Fast dissociation: indirect assay of rate of dissociation from D2 receptor ([3H]spiperone binding after pre-incubation with compound); details: [3H]spiperone binding as % of total binding capacity after 5 min on filter; compound pre-incubated at 4 times its IC50; >50% = faster than clozapine
T4 construct: expressed in transfected cells
Procedure: Compounds were first screened for their D2 affinity in a binding assay using [^3H]spiperone and human D2L receptor cell membranes.
Compounds at a concentration of 4 times their IC50 were first incubated for one hour with human D2L receptor cell membranes in a volume of 2 ml at 25° C., then filtered over glass-fibre filter under suction using a 40 well multividor Immediately after, the vacuum was released. 0.4 ml of pre-warmed buffer (25° C.) containing 1 nM [^3H]spiperone was added on the filter for 5 minutes. The incubation was stopped by initiating the vacuum and immediate rinsing with 2×5 ml of ice-cold buffer. The filter-bound radioactivity was measured in a liquid scintillation spectrometer. The principle of the assay is based on the assumption that the faster a compound dissociates from the D2 receptor, the faster [^3H]spiperone binds to the D2 receptor.

[4] = tested on: subchronic PCP-induced attentional set shifting; assay: Reversal of subchronic PCP-induced attentional set shifting in rats; type: in vivo
Description: Compound E1 was further found to be active in the ‘Reversal of subchronic PCP-induced attentional set shifting in rats’ test (J. S. Rodefer et al., Neurospychopharmacology (2007), 1-10).

T2 sequence (P50406 whole entry): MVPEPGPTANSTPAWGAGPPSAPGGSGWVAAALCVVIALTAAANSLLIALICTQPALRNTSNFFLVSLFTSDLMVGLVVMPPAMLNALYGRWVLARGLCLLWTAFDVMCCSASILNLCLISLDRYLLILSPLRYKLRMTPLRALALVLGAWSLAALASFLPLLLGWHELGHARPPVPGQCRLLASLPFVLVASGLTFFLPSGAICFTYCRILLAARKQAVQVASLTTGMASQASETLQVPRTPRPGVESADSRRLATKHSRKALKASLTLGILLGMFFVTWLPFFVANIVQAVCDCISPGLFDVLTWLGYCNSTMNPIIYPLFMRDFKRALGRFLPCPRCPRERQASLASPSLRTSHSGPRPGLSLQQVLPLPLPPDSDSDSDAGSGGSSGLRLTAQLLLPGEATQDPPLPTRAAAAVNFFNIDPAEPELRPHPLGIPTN
T4 sequence (P14416 whole entry): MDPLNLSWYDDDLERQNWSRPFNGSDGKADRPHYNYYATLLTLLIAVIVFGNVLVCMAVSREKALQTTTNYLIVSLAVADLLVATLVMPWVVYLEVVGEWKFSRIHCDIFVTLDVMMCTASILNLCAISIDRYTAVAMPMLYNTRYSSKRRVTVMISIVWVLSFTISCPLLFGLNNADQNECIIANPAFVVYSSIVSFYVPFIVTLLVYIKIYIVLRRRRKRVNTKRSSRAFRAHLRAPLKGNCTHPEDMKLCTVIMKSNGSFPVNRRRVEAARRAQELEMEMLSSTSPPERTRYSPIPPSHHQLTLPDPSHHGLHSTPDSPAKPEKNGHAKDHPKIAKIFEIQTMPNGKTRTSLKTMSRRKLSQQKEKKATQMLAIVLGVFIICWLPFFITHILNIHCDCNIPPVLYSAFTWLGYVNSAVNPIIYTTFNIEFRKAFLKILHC
T3 sequence (P14416 whole entry): as above
T1 sequence (P35462 whole entry): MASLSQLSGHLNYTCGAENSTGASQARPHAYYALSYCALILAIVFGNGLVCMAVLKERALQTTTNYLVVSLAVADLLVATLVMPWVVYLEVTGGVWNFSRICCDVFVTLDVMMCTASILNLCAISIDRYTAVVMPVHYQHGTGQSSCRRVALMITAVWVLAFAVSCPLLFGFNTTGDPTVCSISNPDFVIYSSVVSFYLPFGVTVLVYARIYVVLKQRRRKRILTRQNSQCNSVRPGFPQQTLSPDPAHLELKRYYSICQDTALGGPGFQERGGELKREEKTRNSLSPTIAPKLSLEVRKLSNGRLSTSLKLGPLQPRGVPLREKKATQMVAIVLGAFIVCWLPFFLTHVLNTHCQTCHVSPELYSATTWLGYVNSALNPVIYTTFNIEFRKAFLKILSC

Row | SMILES | IC50 [1] | IC50 [2] | IC50 [3] | D2 dissociation (human D2L receptor) | activity in reversal of subchronic PCP-induced attentional set shifting [4] | melting point | pIC50 [1]
1 | FC(F)(F)c1nnc(N2CCNCC2)cc1-c1ccccc1 [Example E1, 4-Phenyl-6-piperazin-1-yl-3-trifluoromethyl-pyridazine] | 66.1 nM | 589 nM | 1100 nM | 75% | active | 130.7 °C | –
2 | Fc1ccc(-c2cc(N3CCNCC3)nnc2C(F)(F)F)cc1 [Example E6, 4-(4-Fluorophenyl)-6-piperazin-1-yl-3-trifluoromethyl-pyridazine] | – | 214 nM | 372 nM | 55% | – | 137.4 °C | 7.44
3 | FC(F)(F)c1nnc(N2CCNCC2)cc1-c1ccsc1 [Example E7, 6-Piperazin-1-yl-4-thiophen-3-yl-3-trifluoromethyl-pyridazine] | > 10000 nM | 1550 nM | 871 nM | 81% | – | 244.3 °C | –
4 | Cc1ccccc1-c1cc(N2CCNCC2)nnc1C(F)(F)F [Example E8, 6-Piperazin-1-yl-4-o-tolyl-3-trifluoromethyl-pyridazine] | > 10000 nM | 263 nM | 1000 nM | 78.5% | – | – | –
5 | Cc1csc(-c2cc(N3CCNCC3)nnc2C(F)(F)F)c1 [Example E30] | 53.7 nM | 562 nM | 759 nM | – | – | 98.1 °C | –

Further lines, with some results ahead:

Row | IC50 [1] | SMILES | IC50 [2] | IC50 [3] | D2 dissociation (human D2L receptor) | activity in reversal of subchronic PCP-induced attentional set shifting [4] | melting point | pIC50 [1]
6 | > 10000 nM | FC(F)(F)c1nnc(N2CCN3CCCC3C2)cc1-c1ccccc1 (racemic) [Example E5, 2-(5-Phenyl-6-trifluoromethyl-pyridazin-3-yl)-octahydro-pyrrolo[1,2-a]pyrazine] | 1020 nM | 1260 nM | 84% | – | – | –
7 | 25.1 nM | CCN1CCN(c2cc(-c3ccccc3)c(C(F)(F)F)nn2)CC1 [Example E2, 6-(4-Ethylpiperazin-1-yl)-4-phenyl-3-trifluoromethyl-pyridazine] | 3160 nM | 204 nM | 80.5% | – | – | –
8 | 47.9 nM | Fc1ccc(-c2ccc(-c3cc(N4CCNCC4)nnc3C(F)(F)F)cc2)cc1 [Example E9, 4-(4′-Fluorobiphenyl-4-yl)-6-piperazin-1-yl-3-trifluoromethyl-pyridazine] | 1820 nM | 794 nM | 48% | – | 161.9 °C | –
9 | > 10000 nM | N#Cc1nnc(N2CCNCC2)cc1-c1ccccc1 [Example E10, 4-Phenyl-6-piperazin-1-yl-pyridazine-3-carbonitrile] | 4570 nM | 5620 nM | 86% | – | 271.6 °C | –
10 | 107 nM | FC(F)(F)c1nnc(N2CCNCC2)cc1-c1ccc(-c2ccccc2)cc1 [Example E35] | 1510 nM | 2690 nM | – | – | 199.1 °C | –
